ChEMBL document CHEMBL1139174, “Modeling of human ghrelin receptor (hGHS-R1a) in its close state and validation by molecular docking” (Bioorg Med Chem, 2007)
Square brackets hold non-standard residues; d marks the D form. Peptide text beside a SMILES is read from it. d(hPhe) = N[C@H](CCc1ccccc1)C(=O)O; Aib = CC(C)(N)C(=O)O

Target: Growth hormone secretagogue receptor type 1 (Homo sapiens, UniProt Q92847)
Experiment: Agonist activity at human GHS-R1
Type: functional
Details: not given

Chain of Growth hormone secretagogue receptor type 1 (Q92847 whole entry): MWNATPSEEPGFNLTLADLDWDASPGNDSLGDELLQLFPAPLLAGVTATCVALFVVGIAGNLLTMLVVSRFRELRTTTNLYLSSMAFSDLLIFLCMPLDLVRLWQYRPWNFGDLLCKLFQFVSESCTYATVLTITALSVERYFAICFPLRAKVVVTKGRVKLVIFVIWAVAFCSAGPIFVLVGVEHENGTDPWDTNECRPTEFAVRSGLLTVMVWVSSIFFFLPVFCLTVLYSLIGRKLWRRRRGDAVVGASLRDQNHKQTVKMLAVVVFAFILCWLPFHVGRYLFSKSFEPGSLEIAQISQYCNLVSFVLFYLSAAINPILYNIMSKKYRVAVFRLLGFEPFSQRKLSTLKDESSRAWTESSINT

Log EC50 | SMILES
-8.6 | CC(C)(N)C(=O)N[C@H](CCCc1ccccc1)C(=O)N1CCC2(CC1)C[S+]([O-])c1ccccc12 (some centres not stated)

Same assay, conditions: read-out: EC50

SMILES | EC50 [nM]
O=C(N[C@H](Cc1ccc2ccccc2c1)C(=O)N[C@@H](CO)Cc1c[nH]c2ccccc12)C1CCNCC1 | 10
CNC(C)(C)C/C=C/C(=O)N(C)[C@H](Cc1ccc2ccccc2c1)C(=O)N(C)CCc1ccccc1 | 3
NCCNC(=O)[C@@H](Cc1cccc2ccccc12)NC(=O)CCN1C(=O)CCS(=O)(=O)c2ccccc21 | 10
NCCCCNC(=O)[C@@H](Cc1ccc2ccccc2c1)NC(=O)[C@@H](Cc1ccc2ccccc2c1)NC(=O)C1CCNCC1 | 17
COC(=O)CS(=O)(=O)Nc1ccccc1N1CCN(C(=O)[C@@H](CCCc2ccccc2)NC(=O)C(C)(C)N)CC1 | 4.5
CC(C)(N)C(=O)N[C@H](CCCc1ccccc1)C(=O)N1CCN(c2ccccc2NS(C)(=O)=O)CC1 | 6.3
Cc1ccccc1N1CCN(C(=O)[C@@H](CCCc2ccccc2)NC(=O)C(C)(C)N)CC1 | 100
CCN(CC)CCN1C(=O)[C@@](O)(c2ccc3ccccc3c2)c2c(Br)cccc21 | 77
CCN(CC)CCN1C(=O)[C@@](O)(c2ccc3ccccc3c2)c2c1cc(C#CCCC(=O)N1CCOCC1)cc2C(F)(F)F | 30
CCN(CC)CCN1C(=O)[C@@](O)(c2ccc3ccccc3c2)c2c1cc(C#CCCC(=O)N(C)C)cc2C(F)(F)F | 30
CCN(CC)CCN1C(=O)[C@@](O)(c2ccc3ccccc3c2)c2c1cc(C(N)=O)cc2C(F)(F)F | 18
CCOC(=O)[C@@H](CCc1ccccc1)NC(=O)[C@@H](Cc1c[nH]c2ccccc12)NC(=O)C(C)(C)N (H-[Aib]-[dW]-[d(hPhe)]-OEt) | 3

The next lines start with the values.

EC50 [nM] | SMILES
1 | NCC(O)CNC(=O)[C@@H](Cc1cccc2ccccc12)NC(=O)CCCN1C(=O)CCSc2ccccc21 (some centres not stated)
0.28 | NC(=O)[C@@H](NC(=O)[C@@H](Cc1ccc2ccccc2c1)NC(=O)[C@@H](Cc1ccc2ccccc2c1)NC(=O)C1CCNCC1)c1ccccc1
1.8 | O=C(N[C@H](Cc1ccc2ccccc2c1)C(=O)N[C@@H](CO)Cc1ccc2ccccc2c1)C1CCNCC1
0.8 | CCNC(=O)[C@]1(Cc2ccccc2)CCCN(C(=O)[C@@H](Cc2c[nH]c3ccccc23)NC(=O)C(C)(C)N)C1
2.3 | CC(C)(N)C(=O)N[C@H](CCCc1ccccc1)C(=O)N1CCN(c2ccccc2NS(=O)(=O)CC(=O)O)CC1
2.8 | CC(C)S(=O)(=O)Nc1ccccc1N1CCN(C(=O)[C@@H](CCCc2ccccc2)NC(=O)C(C)(C)N)CC1
1.6 | CCOC(=O)[C@]1(Cc2ccccc2)CCCN(C(=O)[C@@H](Cc2c[nH]c3ccccc23)NC(=O)C(C)(C)N)C1

Same assay, conditions: read-out: Log EC50 (converted)

EC50 [nM] | SMILES
2 | NCC(O)CNC(=O)[C@@H](Cc1cccc2ccccc12)NC(=O)CCCN1C(=O)CCSc2ccccc21 (some centres not stated)
14.1 | Cc1ccccc1N1CCN(C(=O)[C@@H](CCCc2ccccc2)NC(=O)C(C)(C)N)CC1
